Where two headings read alike, the source gives them in different places.
Tests used:
[1] = molecular target: recombinant SARS-CoV-2 Main protease (Mpro) (Severe acute respiratory syndrome coronavirus 2 (2019-nCoV) (SARS-CoV-2), UniProt P0DTD1); experiment: Cov Mpro Biochemical IC50 Assay; conditions: read-out: MPro IC50
[2] = system: SARS-CoV-2-NLuc; experiment: microbe, parasite or virus in culture; type: cell-based, SARS Coronavirus 2
[3] = recombinant SARS-CoV-2 Mpro, fluorogenic peptide substrate
[4] = Severe acute respiratory syndrome coronavirus, 48 h, read-out: MPro EC50
[5] = recombinant SARS-CoV-2 Mpro 7.5 nM, fluorogenic peptide substrate 40 μM
[6] = Severe acute respiratory syndrome coronavirus, 48 h; read-out: MPro EC50

| SMILES | IC50 [1, 3] | EC50 [2, 4] | IC50 [1, 5] | EC50 ([2]; read-out: MPro EC50) | EC50 [2, 6] |
| --- | --- | --- | --- | --- | --- |
| O=c1[nH]c2cc(-c3c(Cl)cccc3-c3ccn4ncnc4c3)ccc2c(=O)n1-c1cncc2ccccc12 [Example 142, 7-[2-chloro-6-([1,2,4]triazolo[1,5-a]pyridin-7-yl)phenyl]-3-(4-isoquinolyl)-1H-quinazoline-2,4-dione] | 8.62 nM | 31.5 nM | – | – | – |
| O=c1[nH]c2cc(-c3ccccc3Cl)sc2c(=O)n1-c1cncc2ccc(N3CCn4c(nnc4C(F)(F)F)C3)cc12 [Example 337] | < 2.68 nM | 170 nM | – | – | – |
| O=c1[nH]c2cc(-c3ccccc3Cl)sc2c(=O)n1-c1cncc2ccoc12 [Example 490] | – | 55.8 nM | 20.8 nM | – | – |
| COc1cc(-c2cc3[nH]c(=O)n(-c4cncc5cnn(C)c45)c(=O)c3s2)c(C#N)cc1F [Example 751, 5-fluoro-4-methoxy-2-[3-(1-methylpyrazolo[4,3-c]pyridin-7-yl)-2,4-dioxo-1H-thieno[3,2-d]pyrimidin-6-yl]benzonitrile] | – | 216 nM | 11.1 nM | – | – |
| COc1cc(-c2cc3c(s2)c(=O)n(-c2cncc4cccnc24)c(=O)n3CCC#N)c(Cl)cc1F (single isomer, unassigned) [Example 1036, 3-(6-(2-chloro-4-fluoro-5-methoxyphenyl)-3-(1,6-naphthyridin-8-yl)-2,4-dioxo-3,4-dihydrothieno[3,2-d]pyrimidin-1(2H)-yl)propanenitrile] | – | – | 1.42 nM | 0.66 nM | – |
| COc1cc(-c2cc3c(s2)c(=O)n(-c2cncnc2)c(=O)n3CCC#N)c(Cl)cc1F [Example 983] | – | 23.1 nM | 6.05 nM | – | – |
| O=c1[nH]c2cc(-c3ccccc3Cl)sc2c(=O)n1-c1cncc2ccsc12 [Example 479, 6-(2-chlorophenyl)-3-thieno[3,2-c]pyridin-7-yl-1H-thieno[3,2-d]pyrimidine-2,4-dione] | – | 20.9 nM | 16.7 nM | – | – |
| COc1ccc(Cl)c(-c2cc3[nH]c(=O)n(-c4cncc5c4OCCC5)c(=O)c3s2)c1 [Example 586] | – | 54.3 nM | 26.2 nM | – | – |
| COc1ccc(Cl)c(-c2cc3[nH]c(=O)n(-c4cncc5sccc45)c(=O)c3s2)c1 [Example 607] | – | 4.34 nM | 4.52 nM | – | – |
| O=c1[nH]c2cc(-c3ccccc3Cl)ccc2c(=O)n1-c1cnccc1N1CCOCC1 [Example 128] | 510 nM | – | – | – | 1320 nM |
| COc1ccc(C#N)c(-c2cc3[nH]c(=O)n(-c4cncc5cccnc45)c(=O)c3s2)c1 [Example 460, 2-(3-(1,6-naphthyridin-8-yl)-2,4-dioxo-1,2,3,4-tetrahydrothieno[3,2-d]pyrimidin-6-yl)-4-methoxybenzonitrile] | – | 60.7 nM | 9.01 nM | – | – |
| COc1cc(-c2cc3[nH]c(=O)n(-c4cncc(Cl)c4C)c(=O)c3s2)c(Cl)cc1F [Example 743, 6-(2-chloro-4-fluoro-5-methoxy-phenyl)-3-(5-chloro-4-methyl-3-pyridyl)-1H-thieno[3,2-d]pyrimidine-2,4-dione] | – | – | 12.1 nM | – | 16.3 nM |
| O=c1[nH]c2cc(-c3ccccc3Cl)c(OC3CC3)cc2c(=O)n1-c1cncc2ccccc12 [Example 80] | 768 nM | 232 nM | – | – | – |
| COc1ccc(Cl)c(-c2ccc3c(=O)n(-c4cncc5ccc(OC)cc45)c(=O)[nH]c3c2)c1 [Example 238] | 48 nM | – | – | – | 54.5 nM |
| COc1cc(-c2cc3c(s2)c(=O)n(-c2cncc4cccnc24)c(=O)n3C)c(Cl)cc1F [Example 994] | – | 8.41 nM | 8.46 nM | – | – |
| O=c1[nH]c2cc(-c3cccnc3Cl)sc2c(=O)n1-c1cncc2ccccc12 [Example 22] | 37.1 nM | 120 nM | – | – | – |
| COc1cc(-c2cc3c(s2)c(=O)n(-c2cncc4nc(-c5ccccc5F)n(C)c24)c(=O)n3CCC#N)c(Cl)cc1F [Example 756] | – | 90.7 nM | 19.6 nM | – | – |
| O=c1c2sc(-c3cccc4c3CCC4)cc2n(Cc2ccc(O)cc2)c(=O)n1-c1cncc2ccccc12 [Example 169] | 5550 nM | – | – | 744 nM | – |
| N#Cc1ccc(Cl)cc1-c1cc2[nH]c(=O)n(-c3cncc4ccccc34)c(=O)c2s1 [Example 685] | – | 69.2 nM | 12 nM | – | – |
| O=c1[nH]c2c(Cl)c(-c3ccccc3Cl)ccc2c(=O)n1-c1cncc2ccccc12 [Example 79] | 14000 nM | 12100 nM | – | – | – |
| COc1cc(-c2cc3[nH]c(=O)n(-c4cncc5sc(C(C)(C)O)c(C)c45)c(=O)c3s2)c(Cl)cc1F [Example 671] | – | 7.44 nM | 5.85 nM | – | – |
| N#CCCn1c(=O)n(-c2cncc3ccc(F)cc23)c(=O)c2sc(-c3ccc(F)cc3Cl)cc21 [Example 948] | – | 12.1 nM | 12.5 nM | – | – |
| COc1ccc(C#N)c(-c2cc3[nH]c(=O)n(-c4cncc5cnn(CC(F)(F)F)c45)c(=O)c3s2)c1 [Example 508] | – | 205 nM | 21.2 nM | – | – |
| CN1C(=O)CC(C)(C)c2cc(-c3cccc(Cl)c3-c3ccc4c(=O)n(-c5cncc6ccccc56)c(=O)[nH]c4c3)ccc21 [Example 315] | 42 nM | 40.2 nM | – | – | – |

| SMILES | IC50 [1, 3] | EC50 [2, 4] | IC50 [1, 5] | EC50 ([2]; read-out: MPro EC50) | EC50 [2, 6] |
| --- | --- | --- | --- | --- | --- |
| O=c1[nH]c2cc(-c3cccc4c3CCC4)ccc2c(=O)n1-c1cncc2ccccc12 [Example 171, 7-(2,3-dihydro-1H-inden-4-yl)-3-(isoquinolin-4-yl)quinazoline-2,4(1H,3H)-dione] | 3790 nM | 4200 nM | – | – | – |
| O=c1[nH]c2cc(-c3ccccc3Cl)sc2c(=O)n1-c1cncc2ccc(N3CCOCC3)cc12 (single isomer, unassigned) [Example 443, 6-(2-chlorophenyl)-3-(6-morpholinoisoquinolin-4-yl)thieno[3,2-d]pyrimidine-2,4(1H,3H)-dione] | – | – | 18.8 nM | 45 nM | – |
| COc1ccc(C#N)c(-c2cc3[nH]c(=O)n(-c4cncc5ncsc45)c(=O)c3s2)c1 [Example 484] | – | 482 nM | 38.9 nM | – | – |
| COc1ccc(Cl)c(-c2cc3[nH]c(=O)n(-c4cncc5cc(OC)ccc45)c(=O)c3s2)c1 [Example 624, 6-(2-chloro-5-methoxyphenyl)-3-(7-methoxyisoquinolin-4-yl)thieno[3,2-d]pyrimidine-2,4(1H,3H)-dione] | – | – | 88.7 nM | – | 386 nM |
| COc1cc(-c2cc3c(s2)c(=O)n(-c2cnccn2)c(=O)n3CCC#N)c(Cl)cc1F [Example 893] | – | 136 nM | 22.1 nM | – | – |
| Cc1nn(C)cc1-c1cc2[nH]c(=O)n(-c3cncc(C4CC4)c3)c(=O)c2s1 [Example 366] | 36800 nM | – | – | – | 32200 nM |
| COc1ccc(Cl)c(-c2cc3[nH]c(=O)n(-c4cncc5ccc(N6C(=O)COC[C@@H]6C)cc45)c(=O)c3s2)c1 [Example 574] | – | – | 6.37 nM | 18.5 nM | – |
| COc1cc(Cl)c(-c2cc3[nH]c(=O)n(-c4cncc5ccccc45)c(=O)c3s2)cc1Cl [Example 724] | – | 17.1 nM | 9.42 nM | – | – |
| COc1ccc(Cl)c(-c2cc3[nH]c(=O)n(-c4cncc5sc(C(C)(C)O)c(C)c45)c(=O)c3s2)c1 [Example 516] | – | 7.87 nM | 5.27 nM | – | – |
| COc1cc(-c2cc3c(s2)c(=O)n(-c2cncc4[nH]c(=O)n(C)c24)c(=O)n3CCC#N)c(Cl)cc1F [Example 687] | – | 148 nM | 4.92 nM | – | – |
| COc1cc(-c2cc3[nH]c(=O)n(-c4cncc5cccnc45)c(=O)c3s2)c(C#N)cc1F [Example 543] | – | 240 nM | 9.91 nM | – | – |
| N#CCCn1c(=O)n(-c2cncc(C#N)c2)c(=O)c2sc(-c3ccccc3Cl)cc21 [Example 1061, 5-(6-(2-chlorophenyl)-1-(2-cyanoethyl)-2,4-dioxo-1,4-dihydrothieno[3,2-d]pyrimidin-3(2H)-yl)nicotinonitrile] | – | – | 5.07 nM | – | 14.6 nM |
| COc1cc(-c2cc3[nH]c(=O)n(-c4cncc5cccc(C)c45)c(=O)c3s2)c(Cl)cc1F [Example 560] | – | 6.1 nM | < 2.54 nM | – | – |
| N#Cc1ccccc1-c1nc2[nH]c(=O)n(-c3cncc4ccccc34)c(=O)c2s1 [Example 118, 2-(6-(isoquinolin-4-yl)-5,7-dioxo-4,5,6,7-tetrahydrothiazolo[4,5-d]pyrimidin-2-yl)benzonitrile] | 290 nM | – | – | – | 11700 nM |
| Cn1ncc2cncc(-n3c(=O)c4sc(-c5cc(F)ccc5Cl)cc4n(CC#N)c3=O)c21 [Example 664] | – | 11.4 nM | 5.24 nM | – | – |
| COc1cc(-c2sc3c(=O)n(-c4cncc5ccccc45)c(=O)[nH]c3c2C)c(Cl)cc1F [Example 1016] | – | – | 357 nM | – | > 1000 nM |
| O=c1[nH]c2cc(-c3cccc4cccnc34)ccc2c(=O)n1-c1cncc2ccccc12 [Example 40] | 1310 nM | – | – | – | 4910 nM |
| Cc1nn(C2CCN(C(=O)OC(C)(C)C)CC2)cc1-c1cccc(Cl)c1-c1ccc2c(=O)n(-c3cncc4ccccc34)c(=O)[nH]c2c1 [Example 266, tert-butyl 4-[4-[3-chloro-2-[3-(4-isoquinolyl)-2,4-dioxo-1H-quinazolin-7-yl]phenyl]-3-methyl-pyrazol-1-yl]piperidine-1-carboxylate] | 36.4 nM | 95.1 nM | – | – | – |
| COCCn1cc2cncc(-n3c(=O)c4sc(-c5cc(OC)c(F)cc5Cl)cc4n(CCC#N)c3=O)c2n1 [Example 914] | – | 10.9 nM | 4.76 nM | – | – |
| COc1ccc(C#N)c(-c2cc3[nH]c(=O)n(-c4cncc(C)c4OCC(F)(F)F)c(=O)c3s2)c1 [Example 225] | 12.1 nM | 87.7 nM | – | – | – |
| Cn1ncc2cncc(-n3c(=O)[nH]c4cc(-c5ccc(F)cc5Cl)sc4c3=O)c21 [Example 662] | – | 81.7 nM | 40.5 nM | – | – |
| O=c1[nH]c2cc(-c3cc(OC(F)(F)F)ccc3Cl)ccc2c(=O)n1-c1cncc2ccccc12 [Example 181] | 1220 nM | 438 nM | – | – | – |
| Cc1cc(C)c(-c2cc3[nH]c(=O)n(-c4cncc5ccccc45)c(=O)c3s2)cc1C#N [Example 648] | – | 188 nM | 99.5 nM | – | – |
| Cn1ncc(-c2cccc(Cl)c2-c2cc3[nH]c(=O)n(-c4cncc5ccccc45)c(=O)c3s2)c1C(F)(F)F [Example 526] | – | 8.34 nM | 15.7 nM | – | – |

From patent publication US20240116946A1 (Gilead Sciences, Inc., priority 2022, published 2024)
